We go through 1 compound from patent publication US11311518B1, “Parenteral dosage form of β3 adrenoreceptor agonists” (Jubilant Pharma Holdings Inc., priority 2021, dated 2022).

Structures are written as SMILES. Values after ≈ are worked out from the molar mass of the structure shown.

The conditions of series [1]: background statement; cited from earlier work.
Series [2] deals with biomarkers such as uncoupling protein 1 (UCP1), PGC-1α in iWAT (Inguinal white adipose tissue). The series is described as follows: Biomarker expression in iWAT after localized microinjections of the injection formulations. Type of series: in vivo, C57BL/6 mice. Conditions: dose up to 1 mg per animal; single and multiple localized microinjections in iWAT; indicates marked thermogenesis. Here is the method:
In certain non-limiting embodiments, the injection formulations were evaluated to determine the effect of mirabegron in animals (such as C57BL/6 mice etc.). The purpose of this study was to determine the effect of mirabegron on modulation in biomarkers such as uncoupling protein 1 (UCP1), Peroxisome proliferator-activated receptor-gamma coactivator-1alpha (PGC-1α) and others in this category to check pharmacokinetics after single and multiple localized microinjections in iWAT (Inguinal white adipose tissue). […]

A short description of series [3]: Solubility of the API in various solvent systems (saturation solubility studies). Type of series: physicochemical. An excerpt: In developing the parenteral formulation of mirabegron, the present inventors conducted extensive research and experiments. The solubility of API was studied in various solvent systems. For formulating immediate release injectable formulations, the solubility of the drug plays an important role as the final parenteral formulation has to be essentially a clear solution. […] Further, the inventors of the present invention were able to achieve maximum API solubility based on series of saturation solubility studies performed. […] The assessment of the successful development and stability of the solutions has been made on basis of the appearance of the solutions, the pH-value, osmolality, impurities content, and stability. The prepared formulations were found acceptable on these parameters.

For `Nc1nc(CC(=O)Nc2ccc(CCNC[C@H](O)c3ccccc3)cc2)cs1` [Mirabegron, (R)-2-(2-aminothiazol-4-yl)-4′-{2-[(2-hydroxy-2 phenylethyl)amino]ethyl}acetanilide], the Solubility in water entry in series [1] is given as “practically insoluble”. In series [2], the “Expression of biomarkers in iWAT” value is recorded as “statistically significant increase”. Besides, the “Solubility of API in Acetate buffer” value in series [3] (Acetate buffer having pH 4.5, saturation solubility studies) was “maximum solubility”. Further, the “Drug solubility with co-solvent” value in series [3] (co-solvent (such as propylene glycol) with or without heating) is listed as “failed to achieve desired drug solubility”. Besides, in series [3] (pH close to 3.0), the “Solubility of API when pH is adjusted to the acidic side” value is given as “soluble”. Besides, the solubility in series [3] (solution with pH adjusted to the acidic side, pH 3, aqueous buffer, after pH adjusted to the acidic side) was no more than 100000 µg/mL; in series [3] (water, starting value, before pH adjustment), roughly 100 µg/mL (≈ 252 µM). The “Solubility of API in water” value in series [3] (water) is recorded as “practically insoluble”.
